From US20230346773A1, “USE OF PCSK9 INHIBITOR IN PREPARATION OF PRODUCT FOR TREATING MULTIPLE DISEASES” (priority 2020, published 2023)
Marks after values point to notes of the source that are not given here.

Key:
[1] = test system: vitiligo guinea pig model caused by hydroquinone depigmentation; assay: Vitiligo guinea pig model caused by hydroquinone depigmentation: counts of epidermal MC and melanin-granule-containing basal cells; type: in vivo; conditions: guinea pig skin after hydroquinone decolorization, drug once a day for 30 days, n = 10, x ± s; for Epidermal melanocyte count: average number of MCs in each 100 epidermal basal cells; for Basal cells containing melanin granules count: average number per 100 epidermal basal cells
Method: (§1) 10 in each group, Half male and female. Except for the blank control group, the other groups were smeared with 5% hydroquinone in the hair removal area for decolorization, 0.5 mL each time, twice a day, and the animals in the blank control group were smeared with an equal amount of normal saline every day. […] After modeling, the drug was administered in the above manner, once a day for 30 days.
After the observation, the mice were sacrificed, and the skin tissue on the back about 3 cm×3 cm was cut for histopathological examination.
The excised mouse skin tissue was fixed in 10% formalin for 1 hour, washed with running water for 3-4 min, and placed into a phosphate buffer solution (pH 7.4) containing 0.1% dihydroxyphenylalanine, and let stand at 37° C. for 1 hour. Then it was replaced with fresh Dopa reagent and left at 37° C. for 12 hours, rinsed with running water, and fixed with Bouin's solution continuously for 24 h. After the specimens were taken out, it was rinsed with running water for 4 hours, dehydrated, cleared in xylene, embedded in paraffin, deparaffinized to water, and stained with hematoxylin-eosin for contrast. Dehydrated and routinely mounted. After Dopa-oxidase staining, brownish-black staining was MC positive.
The excised mouse skin tissue was fixed in 10% formalin, dehydrated, cleared with xylene, embedded in paraffin, sectioned, deparaffinized to water, washed with distilled water several times, then stained with Lillie reagent, soaked with ferric chloride and potassium ferricyanide mixed solution for 15-20 minutes, then differentiated with 1% acetic acid aqueous solution for several minutes, washed with distilled water several times, then quickly dehydrated with 95% ethanol and absolute ethanol, cleared in xylene, and sealed with neutral gum. If melanin was dark green after Lillie reagent staining, it was positive.

tyrosinase = assay: Tyrosinase intensity in skin tissue of vitiligo guinea pig model (immunohistochemistry, two-level scoring); type: in vivo; conditions: n = 10; for Color (units): score in brackets for staining colour; for Number of positive cells (units): score in brackets for tyrosinase-positive cells; for Total number (units): sum of positive-cell and colour scores; for Color: tyrosinase staining colour; for Number of positive cells: tyrosinase-positive cells
Method: as §1
The excised mouse skin tissue was fixed in 10% formalin dehydrated, cleared in xylene, embedded in paraffin, sectioned, deparaffinized to water, then 50 μL of peroxidase blocking agent (3% H2O2) was added to each section for 10 min to block endogenous peroxidase activity. The sections were immersed in 0.01 mol·L-1PBS buffer and microwaved for 10 min, added with 50 μL mouse anti-human tyrosinase monoclonal antibody, left at 37° C. for 60 min, then added with 50 μL of Elivision reagent, left at 37° C. for 30 min. The sections were then placed in freshly prepared DAB-H2O2 chromogenic solution for color development, rinsed with distilled water, stained with hematoxylin for contrast for 1 min, and sealed with neutral gum. The tyrosinase-positive product was located in the cytoplasm of the cell, shown as yellow or brownish-yellow granules or clumps in the cells under the microscope. The two-level scoring method was used to determine the results. If the number of positive cells was less than 5%, the score was 0; 5%˜25% is 1 point; 2 points for 25%˜50%; 3 points for 50%˜75%; >75% is 4 points. When classified according to staining intensity: 1 point for light yellow; 2 points for yellow or dark yellow; 3 points for brown or brownish yellow. If the sum of the two was less than 2, it was negative (−); 2-3 points as positive (+); 4-5 points as moderately positive (2+); 6-7 points as strongly positive (3+).

[2] = test system: androgenetic alopecia (SA) rat model; assay: Androgenetic alopecia (SA) rat model induced by testosterone propionate; type: in vivo, Wistar rats; conditions: for Skin hair follicles and sebaceous glands: number of rats graded ++ / Skin hair follicles and sebaceous glands: number of rats graded ± / Skin hair follicles and sebaceous glands: number of rats graded + / Skin hair follicles and sebaceous glands: number of rats graded − / Skin hair follicles and sebaceous glands: number of rats graded +++: 10 rats, after 60 days; for Skin hair follicles and sebaceous glands: number of rats graded ++: few follicles with cystic degeneration, sebaceous glands mild hyperplasia and hypertrophy; for Skin hair follicles and sebaceous glands: number of rats graded ±: no hyperplasia in the dermis, limited lesions of hair follicles and sebaceous glands, no subcutaneous inflammation; for Skin hair follicles and sebaceous glands: number of rats graded +: no obvious hyperplasia in dermis, obviously cystic follicles, no inflammation; for Skin hair follicles and sebaceous glands: number of rats graded −: normal skin dermal tissue cells, subcutaneous hair follicles and sebaceous glands; for Skin hair follicles and sebaceous glands: number of rats graded +++: segmental hyperplasia, degenerated follicles, hyperplasia of sebaceous glands, mild inflammatory hyperplasia; for 15 d hair length / 30 d hair length / 45 d hair length / 60 d hair length: rats; for 15 d hair length: 15 days after administration; for 30 d hair length: 30 days after administration; for 45 d hair length: 45 days after administration; for 60 d hair length: 60 days after administration
Method: SPF grade Wistar rats were selected and randomly divided into compound group 1 (skin applied with 5% R-IMPP solution), compound group 2 (skin applied with 5% PF 06446846 solution), and compound group 3 (skin applied with 5% SBC-115076 solution), compound group 4 (skin applied with 5% SBC-110736 solution), monoclonal antibody group 1 (subcutaneous injection of PCSK9 monoclonal antibody ab84041, 5 mg/kg·d), monoclonal antibody group 2 (subcutaneous injection of Evolocumab, 5 mg/kg·d), monoclonal antibody group 3 (subcutaneous injection of Alirocumab, 5 mg/kg·d), PCSK9 RNAi inhibitor group-1 (skin applied with 5% PCSK9 small interfering RNA-1 solution), PCSK9 RNAi inhibitor group-2 (skin applied with 5% PCSK9 small interfering RNA-2 solution), PCSK9 RNAi inhibitor group-3 (skin applied with 5% PCSK9 small interfering RNA-3 solution), and polypeptide group (subcutaneous injection of Abcam company ab32727, 3 mg/kg·d), positive control group (skin smeared with 5% minoxidil tincture), negative control group (smeared with 75% ethanol), model control group (smeared with 75% ethanol), 10 rats in each group, half male and half female.
Before the experiment, each rat selected an area of 4 cm×5 cm on the back to remove the hair as the observation area. Except for the negative control group, the rats were subcutaneously injected with testosterone propionate injection [[…]] at the back of the neck, once a day for 60 consecutive days to establish the SA model. […] At the same time, the rats in the corresponding drug group were smeared or subcutaneously injected on the skin of the observation area of the rats in the drug group, smeared 1 ml/(per time), twice a day, with an interval of 8 hours, and administered by subcutaneous injection, once a day. The negative control group and the model control group were smeared with excipient (75% ethanol solution), 1 mL one rat per time, twice a day, for 60 consecutive days.
10 hairs were extracted from the observation area on the back of each rat every 15 days after administration, and the hair length was measured with a vernier caliper. After 60 days of administration, the skin of the experimental observation area was taken for routine tissue dehydration, paraffin embedding, HE staining, and light microscopy to observe the histopathological changes of the rat skin hair follicles and sebaceous glands. Semi-quantitative analysis was carried out in each group. The grading standards are as follows: normal skin dermal tissue cells, subcutaneous hair follicles, and sebaceous glands were marked as “one”; no hyperplasia in the dermis, limited lesions of hair follicles and sebaceous glands, and no subcutaneous inflammation, marked as “±”; no obvious hyperplasia found in the dermis, obviously cystic follicles, no obvious hyperplasia found in the sebaceous glands, and no inflammation is recorded as “+”; segmental hyperplasia of skin and dermis was not obvious, a small number of hair follicles had cystic degeneration, and sebaceous glands had mild hyperplasia and hypertrophy. No obvious inflammation under the skin was recorded as “++”; the skin and dermis tissue cells had segmental hyperplasia of different degrees, some follicles degenerated, the size of the hair follicles was uneven, and there were no cells in the periphery. There was hyperplasia of sebaceous glands, and there were few nuclei in the hyperplasia glands. Individual rats had mild inflammatory hyperplasia under the skin, which was marked as “+++”.

Molecule | Epidermal melanocyte count [1] | Basal cells containing melanin granules count [1] | Color (units) (tyrosinase) | Number of positive cells (units) (tyrosinase) | Total number (units) (tyrosinase) | Color (tyrosinase) | Number of positive cells (tyrosinase) [%] | Skin hair follicles and sebaceous glands: number of rats graded ++ [2] | Skin hair follicles and sebaceous glands: number of rats graded ± [2] | Skin hair follicles and sebaceous glands: number of rats graded + [2] | Skin hair follicles and sebaceous glands: number of rats graded − [2] | Skin hair follicles and sebaceous glands: number of rats graded +++ [2] | 15 d hair length [2] | 30 d hair length [2] | 45 d hair length [2] | 60 d hair length [2]
COc1ccc(CCC(=O)N(c2nccc3ccccc23)[C@@H]2CCCNC2)cc1 [Compound group 1, R-IMPP] | 33.6 ± 2.9 | 36.5 ± 3.8 | 2 | 3 | 5 | Brownish-yellow | 30 | 3 | 5 | 2 | 0 | 0 | 8.9* mm | 9.9* mm | 14.7* mm | 18.2* mm
CC(=O)Nc1ccc(C(=O)N2CCN(c3ccc(C)cc3)CC2c2ccccc2)cc1 (stereo not shown) [Compound group 4, SBC-110736] | 34.6 ± 2.6 | 36.8 ± 3.7 | 3 | 3 | 6 | Brownish-yellow | 30 | 2 | 4 | 3 | 1 | 0 | 8.1* mm | 8.6* mm | 14.3* mm | 17.3* mm
Cc1cc(C(=O)C2=C(O)C(=O)N(CCCN3CCOCC3)C2c2ccncc2)ccc1OCc1ccccc1 (stereo not shown) [Compound group 3, SBC-115076] | 36.1 ± 2.8 | 36.9 ± 3.6 | 3 | 3 | 6 | Brownish-yellow | 30 | 3 | 4 | 2 | 1 | 0 | 8.3* mm | 8.8* mm | 14.5* mm | 17.6* mm
Alirocumab [Monoclonal antibody group 3] | 43.5 ± 3.6 | 39.6 ± 3.7 | 4 | 3 | 7 | Brownish-yellow | 30 | 1 | 4 | 2 | 3 | 0 | 9.5* mm | 10.5* mm | 15.5* mm | 19.2* mm
O=C(c1ccc(-n2nnc3cccnc32)cc1)N(c1ncccc1Cl)[C@@H]1CCCNC1 [Compound group 2, PF 06446846] | 39.3 ± 3.2 | 38.8 ± 3.9 | 3 | 4 | 7 | Brownish-yellow | 40 | 1 | 5 | 2 | 2 | 0 | 9.2* mm | 10.1* mm | 15.2* mm | 18.9* mm
ALN-PCS [RNA interference group 3] | 33.8 ± 2.7 | 35.3 ± 3.1 | 2 | 3 | 5 | Yellow | 30 | 2 | 3 | 4 | 1 | 0 | 8.2* mm | 8.9* mm | 14.2* mm | 16.7* mm
Inclisran [RNA interference group 2] | 32.6 ± 2.8 | 36.1 ± 3.2 | 2 | 3 | 5 | Yellow | 30 | 1 | 4 | 4 | 1 | 0 | 8.3* mm | 9.1* mm | 14.5* mm | 16.9* mm
